{
  "source": "ChEMBL document CHEMBL6096697",
  "about": "“Structure-Guided Discovery of Novel N4-(Substituted Thiazol-2-yl)-N2-(4-Substituted phenyl)pyrimidine-2,4-Diamines as Potent CDK2 and CDK9 Dual Inhibitors with High Oral Bioavailability” (J Med Chem, 2025)",
  "key": {"[1]": {"target": "Cyclin-dependent kinase 2 (Homo sapiens) (UniProt P24941)", "assay": "Inhibition of CDK2 in human HCT-116 cells assessed as reduction in Rb phosphorylation at Ser780 incubated for 24 hr s by Western blot analysis", "assay_type": "cell-based", "settings": "dose <= 0.8 µM"}, "[2]": {"assay": "Cmax in Sprague-Dawley rat at 10 mg/kg, po measured for 36 hrs by MRM analysis", "assay_type": "ADME, organism-based", "settings": "in vivo"}, "HCT-116 [3]": {"tested_on": "HCT-116", "assay": "Induction of cell cycle arrest in human HCT-116 cells assessed as accumulation at S phase at 0.8 uM incubated for 24 hrs by PI staining based flow cytometry (reference value: 20.82 +/- 1.24 %)", "assay_type": "functional"}, "HCT-116 [4]": {"tested_on": "HCT-116", "assay": "Induction of apoptosis in human HCT-116 cells assessed as decrease in Bcl-2 level upto 0.8 uM incubated for 24 hrs by Western blot analysis", "assay_type": "functional, cell-based"}, "HCT-116 [5]": {"tested_on": "HCT-116", "assay": "Induction of cell cycle arrest at G2/M phase in human HCT-116 cells assessed as decrease in p-Cdc2 level at 0.4 uM by Western blot analysis", "assay_type": "functional, cell-based", "settings": "time <= 48.0 hrs"}, "HCT-116 [6]": {"tested_on": "HCT-116", "assay": "Induction of cell cycle arrest at G2/M phase in human HCT-116 cells assessed as decrease in cyclin B1 level incubated for 48 hrs by Western blot analysis", "assay_type": "functional, cell-based", "settings": "dose <= 0.8 µM"}, "[7]": {"target": "Cyclin-dependent kinase 7/ cyclin H (Homo sapiens, UniProt P50613)", "sequence (P51946 whole entry)": "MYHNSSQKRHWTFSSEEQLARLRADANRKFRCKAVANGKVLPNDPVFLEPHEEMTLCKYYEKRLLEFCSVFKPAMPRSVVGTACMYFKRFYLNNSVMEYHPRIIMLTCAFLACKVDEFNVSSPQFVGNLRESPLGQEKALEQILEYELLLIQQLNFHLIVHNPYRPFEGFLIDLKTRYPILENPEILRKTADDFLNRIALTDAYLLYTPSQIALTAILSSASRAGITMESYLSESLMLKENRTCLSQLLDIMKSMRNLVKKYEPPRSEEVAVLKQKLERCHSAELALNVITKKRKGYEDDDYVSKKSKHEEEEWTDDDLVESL", "sequence (P50613 whole entry)": "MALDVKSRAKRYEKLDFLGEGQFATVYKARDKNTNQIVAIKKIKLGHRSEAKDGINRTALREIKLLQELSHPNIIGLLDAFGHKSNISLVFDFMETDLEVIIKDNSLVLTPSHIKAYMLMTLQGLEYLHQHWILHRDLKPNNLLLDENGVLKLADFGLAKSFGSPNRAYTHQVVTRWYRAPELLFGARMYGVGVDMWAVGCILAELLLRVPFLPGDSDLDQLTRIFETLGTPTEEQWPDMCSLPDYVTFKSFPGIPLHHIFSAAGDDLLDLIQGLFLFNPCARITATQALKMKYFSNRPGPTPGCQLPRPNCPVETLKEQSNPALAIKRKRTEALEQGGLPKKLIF", "assay": "Inhibition of CDK7/cyclin H (unknown origin) using […] incubated for 40 mins in presence of ATP by Kinase-Glo assay", "assay_type": "protein-complex assay"}, "MCF7": {"tested_on": "MCF7", "assay": "Antiproliferative activity against human MCF7 cells assessed as cell growth inhibition incubated for 48 hrs by MTT assay", "assay_type": "functional, cell-based", "settings": "MCF7, 48 h"}, "HCT-116 [8]": {"tested_on": "HCT-116", "assay": "Induction of apoptosis in human HCT-116 cells assessed as increase in p53 level upto 0.8 uM incubated for 24 hrs by Western blot analysis", "assay_type": "functional, cell-based"}, "[9]": {"assay": "AUC (0 to t) in Sprague-Dawley rat at 2 mg/kg, iv measured for 36 hrs by MRM analysis", "assay_type": "ADME, organism-based", "settings": "in vivo"}},
  "note": "pIC50: −log10 of the molar value. Calls of active or inactive are those of the source. No cut-off for these calls is given here.",
  "data": [
    {"smiles": "Cc1cnc(Nc2ccc(S(N)(=O)=O)cc2)nc1Nc1nccs1", "values": [
      {"measurement": "inhibition", "setting": "[1]", "result": "Dose-dependent-effect"},
      {"measurement": "Cmax", "setting": "[2]", "result": 21.1, "unit": "ng/mL"},
      {"measurement": "Activity", "setting": "HCT-116 [3]", "result": 20.18, "unit": "%"},
      {"measurement": "Activity", "setting": "HCT-116 [4]", "result": "Active"},
      {"measurement": "Activity", "setting": "HCT-116 [5]", "result": "Time-dependent-effect"},
      {"measurement": "Activity", "setting": "HCT-116 [6]", "result": "Dose-dependent-effect"},
      {"measurement": "pIC50", "setting": "[7]", "result": 6.67},
      {"measurement": "pIC50", "setting": "MCF7", "result": 5.44},
      {"measurement": "Activity", "setting": "HCT-116 [8]", "result": "Active"},
      {"measurement": "AUC(0-t) at 36 h", "setting": "[9]", "result": 33.5, "unit": "ng·h/mL"}
    ]}
  ]
}
